The source made the active and inactive calls.
Columns and labels:
Major prion protein = Major prion protein (Homo sapiens, UniProt P04156); type: functional, cell-based
[1] = biological target: T1, Carboxy-terminal domain RNA polymerase II polypeptide A small phosphatase 1 (Homo sapiens, UniProt Q9GZU7); assay: CTDSP1 inhibitors, concentration-response, biochemical, absorbance readout, ultra-high-throughput screen actives (AID 540297); type: functional
T1 sequence (Q9GZU7 whole entry): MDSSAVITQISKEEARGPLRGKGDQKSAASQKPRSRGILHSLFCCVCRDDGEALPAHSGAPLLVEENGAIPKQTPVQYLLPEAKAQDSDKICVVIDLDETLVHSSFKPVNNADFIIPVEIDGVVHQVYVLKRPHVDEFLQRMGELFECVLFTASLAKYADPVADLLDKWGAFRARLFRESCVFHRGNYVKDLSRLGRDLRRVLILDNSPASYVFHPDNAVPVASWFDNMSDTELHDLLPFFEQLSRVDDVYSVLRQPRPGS

[2] = biological target: Tyrosine-protein phosphatase non-receptor type 11 (Homo sapiens, UniProt Q06124); assay: PTPN11 enzyme inhibitors – biochemical, selectivity assay for STEP inhibitor project, dose response (AID 602367); type: functional; settings: read-out: IC50_Mean
[3] = biological target: Tyrosine-protein phosphatase non-receptor type 5 (Homo sapiens, UniProt P54829); assay: PTPN5 enzyme inhibition – biochemical, fluorescence intensity, uHTS hits, confirmation (AID 602372); type: functional; settings: read-out: IC50_Mean
[4] = biological target: Dual specificity protein phosphatase 3 (Homo sapiens, UniProt P51452); assay: VHR phosphatase inhibition, dose response, selectivity assay for STEP inhibitor project, biochemical (AID 602374); type: functional; settings: read-out: IC50_Mean
[5] = biological target: Disintegrin and metalloproteinase domain-containing protein 17 (Homo sapiens, UniProt P78536); assay: exosite inhibitors of ADAM17, dose response, biochemical (AID 743260)
[6] = inhibition of ADAM10 peptide cleavage – biochemical, FRET peptide substrate, recombinant human ADAM10, selectivity assay for ADAM17 exosite inhibitor project, dose response (AID 743259);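 note: ADAM10 enzyme cleaving a FRET peptide substrate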
fMet-Leu-Phe receptor = fMet-Leu-Phe receptor (Homo sapiens, UniProt P21462); assay: formyl peptide receptor binders – dose response (AID 519); type: functional
[7] = biological target: T2, Replicative DNA helicase DnaB (Mycobacterium tuberculosis, UniProt P9WMR3); assay: DnaB intein splicing inhibitors, dose response, biochemical, cell-free fluorescence (AID 449749); type: functional
T2 sequence (P9WMR3 whole entry): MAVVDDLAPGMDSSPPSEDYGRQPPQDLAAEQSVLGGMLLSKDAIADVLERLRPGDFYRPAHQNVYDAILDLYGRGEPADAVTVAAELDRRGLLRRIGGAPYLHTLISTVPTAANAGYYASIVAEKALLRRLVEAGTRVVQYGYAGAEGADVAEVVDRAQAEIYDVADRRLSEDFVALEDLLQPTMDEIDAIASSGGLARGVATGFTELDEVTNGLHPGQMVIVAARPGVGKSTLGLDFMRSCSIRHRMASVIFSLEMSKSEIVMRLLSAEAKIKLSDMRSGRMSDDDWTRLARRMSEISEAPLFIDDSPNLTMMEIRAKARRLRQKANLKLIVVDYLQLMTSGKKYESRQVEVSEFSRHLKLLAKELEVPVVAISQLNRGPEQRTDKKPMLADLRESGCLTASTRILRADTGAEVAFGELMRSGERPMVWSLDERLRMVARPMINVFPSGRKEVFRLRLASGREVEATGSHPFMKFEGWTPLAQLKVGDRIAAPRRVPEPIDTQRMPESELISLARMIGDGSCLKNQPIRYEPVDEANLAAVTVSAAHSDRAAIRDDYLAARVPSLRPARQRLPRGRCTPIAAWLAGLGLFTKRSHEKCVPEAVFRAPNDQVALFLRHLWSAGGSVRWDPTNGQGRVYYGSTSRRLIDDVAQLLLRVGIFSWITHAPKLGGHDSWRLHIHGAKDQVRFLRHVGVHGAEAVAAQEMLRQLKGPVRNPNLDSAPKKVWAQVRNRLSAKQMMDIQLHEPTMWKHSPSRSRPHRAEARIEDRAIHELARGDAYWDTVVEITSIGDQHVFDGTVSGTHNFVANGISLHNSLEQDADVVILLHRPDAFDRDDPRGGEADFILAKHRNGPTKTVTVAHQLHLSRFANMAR

[8] = biological target: T3, Apoptotic protease-activating factor 1 (Homo sapiens, UniProt O14727); type: functional
T3 sequence (O14727 whole entry): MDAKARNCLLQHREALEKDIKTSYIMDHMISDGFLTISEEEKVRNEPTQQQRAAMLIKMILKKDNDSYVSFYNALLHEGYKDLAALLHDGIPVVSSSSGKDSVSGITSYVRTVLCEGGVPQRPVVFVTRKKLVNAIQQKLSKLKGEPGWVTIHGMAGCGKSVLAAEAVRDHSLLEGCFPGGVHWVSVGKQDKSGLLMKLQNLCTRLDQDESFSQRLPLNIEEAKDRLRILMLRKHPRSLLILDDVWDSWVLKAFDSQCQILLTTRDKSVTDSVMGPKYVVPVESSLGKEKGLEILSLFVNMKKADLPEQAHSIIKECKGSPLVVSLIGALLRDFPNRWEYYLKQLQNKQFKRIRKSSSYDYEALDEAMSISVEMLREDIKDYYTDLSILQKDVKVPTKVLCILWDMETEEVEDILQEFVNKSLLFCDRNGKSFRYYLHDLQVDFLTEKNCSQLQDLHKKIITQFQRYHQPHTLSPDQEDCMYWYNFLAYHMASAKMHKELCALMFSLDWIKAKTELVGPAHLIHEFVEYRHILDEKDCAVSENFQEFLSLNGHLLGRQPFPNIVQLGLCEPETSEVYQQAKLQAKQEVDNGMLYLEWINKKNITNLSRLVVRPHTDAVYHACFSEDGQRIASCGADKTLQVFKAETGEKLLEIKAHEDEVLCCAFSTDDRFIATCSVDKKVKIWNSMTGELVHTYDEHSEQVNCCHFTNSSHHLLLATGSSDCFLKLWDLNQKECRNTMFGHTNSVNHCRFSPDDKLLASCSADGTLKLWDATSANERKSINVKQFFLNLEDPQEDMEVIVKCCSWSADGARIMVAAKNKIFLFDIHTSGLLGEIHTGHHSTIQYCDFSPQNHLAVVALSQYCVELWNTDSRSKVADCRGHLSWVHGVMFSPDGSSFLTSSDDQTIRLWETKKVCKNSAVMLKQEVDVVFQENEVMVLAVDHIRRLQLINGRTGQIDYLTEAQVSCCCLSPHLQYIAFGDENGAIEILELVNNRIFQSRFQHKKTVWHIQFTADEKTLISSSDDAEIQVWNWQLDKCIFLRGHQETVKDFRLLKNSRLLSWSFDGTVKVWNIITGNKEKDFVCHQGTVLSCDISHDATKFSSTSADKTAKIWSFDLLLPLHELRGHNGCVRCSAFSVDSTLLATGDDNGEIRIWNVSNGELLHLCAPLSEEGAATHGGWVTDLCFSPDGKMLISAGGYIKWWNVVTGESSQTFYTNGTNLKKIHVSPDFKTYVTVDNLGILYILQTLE

Protein RecA = biological target: T4, Protein RecA (Mycobacterium tuberculosis, UniProt P9WHJ3); assay: Fluorescence Cell-Free Homogeneous Dose Retest to Identify Inhibitors of RecA-Intein Splicing Activity. [Related pubchem assays (depositor defined):AID2097, AID2223, AID489010, AID492950]; type: functional
T4 sequence (P9WHJ3 whole entry): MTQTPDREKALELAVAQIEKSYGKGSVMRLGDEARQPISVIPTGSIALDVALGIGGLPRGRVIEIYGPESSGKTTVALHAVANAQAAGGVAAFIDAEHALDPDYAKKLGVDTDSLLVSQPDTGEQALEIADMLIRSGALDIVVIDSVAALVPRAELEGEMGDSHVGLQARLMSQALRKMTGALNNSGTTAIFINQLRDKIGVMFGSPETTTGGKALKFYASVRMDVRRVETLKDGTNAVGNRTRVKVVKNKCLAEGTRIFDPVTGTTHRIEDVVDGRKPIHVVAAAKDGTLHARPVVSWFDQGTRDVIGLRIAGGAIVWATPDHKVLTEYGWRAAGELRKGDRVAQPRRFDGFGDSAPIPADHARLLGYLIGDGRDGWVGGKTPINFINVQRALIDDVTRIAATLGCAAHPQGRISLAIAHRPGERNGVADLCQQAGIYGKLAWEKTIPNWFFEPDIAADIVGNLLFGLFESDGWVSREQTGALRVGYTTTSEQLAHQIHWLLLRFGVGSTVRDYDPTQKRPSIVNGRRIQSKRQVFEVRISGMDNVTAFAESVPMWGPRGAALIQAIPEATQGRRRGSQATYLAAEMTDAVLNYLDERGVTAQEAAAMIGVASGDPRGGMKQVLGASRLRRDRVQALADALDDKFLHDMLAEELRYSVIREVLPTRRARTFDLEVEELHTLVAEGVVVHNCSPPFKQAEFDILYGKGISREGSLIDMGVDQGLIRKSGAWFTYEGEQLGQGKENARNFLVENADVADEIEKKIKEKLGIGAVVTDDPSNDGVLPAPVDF

Genome polyprotein = Genome polyprotein (dengue virus type 2, UniProt P29990); assay: flavivirus cap methylation enzyme inhibition – biochemical, confirmation dose response, primary screen (AID 588689); type: functional
[9] = biological target: Histone-lysine N-methyltransferase NSD2 (Homo sapiens, UniProt O96028); type: biochemical
[10] = biological target: 1-phosphatidylinositol 4,5-bisphosphate phosphodiesterase gamma-1 (Homo sapiens, UniProt P19174); assay: Counterscreen for inhibitors of phospholipase C isozymes (PLC-B3): Fluorescence-based biochemical high throughput dose response assay to identify inhibitors of phospholipase C isozymes (PLC-gamma1).
[11] = biological target: 1-phosphatidylinositol 4,5-bisphosphate phosphodiesterase beta-3 (Homo sapiens, UniProt Q01970); assay: Fluorescence-based biochemical high throughput dose response assay to identify inhibitors of phospholipase C isozymes (PLC-B3).
[12] = biological target: T5, Methionyl-tRNA synthetase, putative (Trypanosoma brucei brucei, UniProt Q38C91); type: functional, Trypanosoma brucei brucei strain 927/4 GUTat10.1
T5 sequence (Q38C91 whole entry): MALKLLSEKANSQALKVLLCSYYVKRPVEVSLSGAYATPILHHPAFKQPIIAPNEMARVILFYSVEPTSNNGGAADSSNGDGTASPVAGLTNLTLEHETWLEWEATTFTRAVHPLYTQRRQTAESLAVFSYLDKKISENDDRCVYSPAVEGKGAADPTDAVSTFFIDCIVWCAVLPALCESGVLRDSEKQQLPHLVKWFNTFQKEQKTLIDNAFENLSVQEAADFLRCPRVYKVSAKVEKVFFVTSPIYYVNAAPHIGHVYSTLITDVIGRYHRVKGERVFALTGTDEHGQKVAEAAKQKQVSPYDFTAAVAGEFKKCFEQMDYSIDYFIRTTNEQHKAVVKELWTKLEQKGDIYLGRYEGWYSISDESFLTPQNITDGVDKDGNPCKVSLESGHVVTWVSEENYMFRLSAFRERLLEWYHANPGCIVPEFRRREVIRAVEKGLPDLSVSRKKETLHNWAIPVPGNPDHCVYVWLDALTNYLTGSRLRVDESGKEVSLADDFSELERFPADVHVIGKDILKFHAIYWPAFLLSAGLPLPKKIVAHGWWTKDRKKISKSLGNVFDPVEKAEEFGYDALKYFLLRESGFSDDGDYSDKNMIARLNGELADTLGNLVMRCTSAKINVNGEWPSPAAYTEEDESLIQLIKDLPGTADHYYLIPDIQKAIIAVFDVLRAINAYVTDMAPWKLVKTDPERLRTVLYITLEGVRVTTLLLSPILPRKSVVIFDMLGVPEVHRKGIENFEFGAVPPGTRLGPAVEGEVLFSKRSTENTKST

[13] = Counterscreen for inhibitors of Trypanosoma brucei methionyl tRNA synthetase (MetRS): Luminescence-based cell-based high throughput dose response assay to identify compounds that are cytotoxic to Jurkat human T lymphocyte cells.; type: functional
[14] = biological target: T5, Methionyl-tRNA synthetase, putative; type: functional, Trypanosoma brucei brucei strain 927/4 GUTat10.1; remark: listed apart in the source
[15] = Late stage counterscreen for inhibitors of Trypanosoma brucei methionyl tRNA synthetase (MetRS): Luminescence-based cell-based high throughput dose response assay to identify compounds that are cytotoxic to Jurkat human T lymphocyte cells.; type: functional

Sequence of 1-phosphatidylinositol 4,5-bisphosphate phosphodiesterase gamma-1 (P19174 whole entry): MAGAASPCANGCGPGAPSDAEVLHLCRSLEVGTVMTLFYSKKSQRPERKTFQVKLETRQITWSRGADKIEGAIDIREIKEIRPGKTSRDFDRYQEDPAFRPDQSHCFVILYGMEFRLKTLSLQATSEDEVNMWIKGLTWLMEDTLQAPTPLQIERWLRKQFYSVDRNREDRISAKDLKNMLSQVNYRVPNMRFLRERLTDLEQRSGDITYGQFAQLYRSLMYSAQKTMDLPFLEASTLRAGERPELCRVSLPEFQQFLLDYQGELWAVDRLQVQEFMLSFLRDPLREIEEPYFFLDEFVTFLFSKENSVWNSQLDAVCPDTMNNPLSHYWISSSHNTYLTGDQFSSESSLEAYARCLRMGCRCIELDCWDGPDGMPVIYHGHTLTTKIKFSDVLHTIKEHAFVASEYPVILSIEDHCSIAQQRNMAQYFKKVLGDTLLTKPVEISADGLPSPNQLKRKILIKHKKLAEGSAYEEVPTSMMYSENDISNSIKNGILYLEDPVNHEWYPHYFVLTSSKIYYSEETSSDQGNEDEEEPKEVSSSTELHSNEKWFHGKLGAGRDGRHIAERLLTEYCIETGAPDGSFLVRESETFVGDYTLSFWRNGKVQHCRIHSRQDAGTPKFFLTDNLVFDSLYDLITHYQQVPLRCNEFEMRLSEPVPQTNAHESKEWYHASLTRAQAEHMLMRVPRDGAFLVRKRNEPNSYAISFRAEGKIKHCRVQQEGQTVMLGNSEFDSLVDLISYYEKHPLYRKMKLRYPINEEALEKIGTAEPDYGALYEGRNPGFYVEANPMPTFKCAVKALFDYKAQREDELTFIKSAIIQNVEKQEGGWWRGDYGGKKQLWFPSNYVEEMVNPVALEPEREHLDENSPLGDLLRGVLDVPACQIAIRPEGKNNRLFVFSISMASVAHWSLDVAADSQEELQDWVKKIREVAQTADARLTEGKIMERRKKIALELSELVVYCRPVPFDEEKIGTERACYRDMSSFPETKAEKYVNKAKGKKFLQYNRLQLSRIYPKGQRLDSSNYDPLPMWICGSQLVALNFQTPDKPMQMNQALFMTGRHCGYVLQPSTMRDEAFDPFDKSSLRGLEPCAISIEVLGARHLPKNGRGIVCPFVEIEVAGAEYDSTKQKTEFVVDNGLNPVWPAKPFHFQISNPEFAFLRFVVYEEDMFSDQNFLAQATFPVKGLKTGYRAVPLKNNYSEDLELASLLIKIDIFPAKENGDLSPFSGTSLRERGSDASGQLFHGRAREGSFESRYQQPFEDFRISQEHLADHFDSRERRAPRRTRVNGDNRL
Sequence of Disintegrin and metalloproteinase domain-containing protein 17 (P78536 whole entry, the tested form may be a part): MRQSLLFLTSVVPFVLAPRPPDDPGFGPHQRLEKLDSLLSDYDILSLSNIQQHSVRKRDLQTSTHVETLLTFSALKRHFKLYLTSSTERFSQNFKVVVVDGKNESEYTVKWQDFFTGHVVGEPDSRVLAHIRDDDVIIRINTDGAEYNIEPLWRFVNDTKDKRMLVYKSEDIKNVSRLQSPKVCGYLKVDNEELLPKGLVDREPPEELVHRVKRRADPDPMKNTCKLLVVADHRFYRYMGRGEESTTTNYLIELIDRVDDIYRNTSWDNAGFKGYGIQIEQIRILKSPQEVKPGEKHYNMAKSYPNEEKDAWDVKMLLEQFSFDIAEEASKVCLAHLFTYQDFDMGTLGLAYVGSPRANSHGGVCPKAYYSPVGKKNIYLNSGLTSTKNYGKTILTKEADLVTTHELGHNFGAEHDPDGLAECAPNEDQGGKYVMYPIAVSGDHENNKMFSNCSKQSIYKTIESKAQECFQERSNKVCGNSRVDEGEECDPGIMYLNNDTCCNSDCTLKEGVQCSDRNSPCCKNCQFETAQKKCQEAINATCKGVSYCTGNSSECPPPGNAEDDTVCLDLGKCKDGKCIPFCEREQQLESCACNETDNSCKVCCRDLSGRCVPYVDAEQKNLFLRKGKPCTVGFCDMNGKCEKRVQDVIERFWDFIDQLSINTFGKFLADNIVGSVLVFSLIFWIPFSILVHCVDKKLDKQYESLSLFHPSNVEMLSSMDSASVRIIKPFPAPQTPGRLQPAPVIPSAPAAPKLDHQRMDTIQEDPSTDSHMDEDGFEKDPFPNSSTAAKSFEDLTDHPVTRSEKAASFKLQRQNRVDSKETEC
Sequence of fMet-Leu-Phe receptor (P21462 whole entry): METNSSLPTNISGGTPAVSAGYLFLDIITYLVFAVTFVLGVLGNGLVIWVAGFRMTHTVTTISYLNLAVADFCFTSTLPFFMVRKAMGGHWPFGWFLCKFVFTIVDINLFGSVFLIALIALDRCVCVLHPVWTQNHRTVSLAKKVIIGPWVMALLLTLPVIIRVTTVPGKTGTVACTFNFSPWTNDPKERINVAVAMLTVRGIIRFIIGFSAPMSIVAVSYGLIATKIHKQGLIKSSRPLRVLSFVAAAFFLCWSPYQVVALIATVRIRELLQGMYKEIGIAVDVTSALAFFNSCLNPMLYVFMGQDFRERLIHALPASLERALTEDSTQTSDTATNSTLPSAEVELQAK
Sequence of 1-phosphatidylinositol 4,5-bisphosphate phosphodiesterase beta-3 (Q01970 whole entry): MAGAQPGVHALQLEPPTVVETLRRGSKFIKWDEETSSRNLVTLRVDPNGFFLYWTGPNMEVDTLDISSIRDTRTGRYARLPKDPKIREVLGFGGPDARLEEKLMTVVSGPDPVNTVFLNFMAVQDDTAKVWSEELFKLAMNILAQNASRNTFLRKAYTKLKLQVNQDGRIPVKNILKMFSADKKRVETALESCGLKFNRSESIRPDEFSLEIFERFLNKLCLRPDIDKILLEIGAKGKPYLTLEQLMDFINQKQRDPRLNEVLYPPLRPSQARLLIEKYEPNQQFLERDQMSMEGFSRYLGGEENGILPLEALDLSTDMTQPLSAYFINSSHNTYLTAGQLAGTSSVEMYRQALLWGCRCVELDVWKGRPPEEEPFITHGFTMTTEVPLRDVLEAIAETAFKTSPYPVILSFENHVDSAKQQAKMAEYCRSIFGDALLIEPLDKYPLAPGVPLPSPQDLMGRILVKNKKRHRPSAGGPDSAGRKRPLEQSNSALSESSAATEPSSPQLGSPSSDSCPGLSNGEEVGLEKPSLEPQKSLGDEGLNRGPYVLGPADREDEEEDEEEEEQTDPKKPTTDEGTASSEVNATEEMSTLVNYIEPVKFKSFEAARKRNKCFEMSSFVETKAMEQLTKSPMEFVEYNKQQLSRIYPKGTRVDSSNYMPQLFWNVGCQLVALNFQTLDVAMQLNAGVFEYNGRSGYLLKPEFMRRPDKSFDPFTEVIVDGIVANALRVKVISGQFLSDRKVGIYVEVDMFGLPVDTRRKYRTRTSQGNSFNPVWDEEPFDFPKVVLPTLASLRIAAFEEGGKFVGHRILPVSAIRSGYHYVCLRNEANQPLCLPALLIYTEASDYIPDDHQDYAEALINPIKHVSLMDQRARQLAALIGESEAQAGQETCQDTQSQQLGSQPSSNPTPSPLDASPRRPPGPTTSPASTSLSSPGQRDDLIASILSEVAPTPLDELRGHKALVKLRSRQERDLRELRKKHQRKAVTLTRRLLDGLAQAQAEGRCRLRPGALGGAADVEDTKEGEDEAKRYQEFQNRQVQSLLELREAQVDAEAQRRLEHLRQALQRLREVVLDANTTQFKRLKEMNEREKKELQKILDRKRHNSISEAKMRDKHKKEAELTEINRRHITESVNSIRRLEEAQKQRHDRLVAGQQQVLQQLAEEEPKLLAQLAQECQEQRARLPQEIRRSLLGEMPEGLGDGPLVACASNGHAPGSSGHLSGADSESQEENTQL
Sequence of Dual specificity protein phosphatase 3 (P51452 whole entry, the tested form may be a part): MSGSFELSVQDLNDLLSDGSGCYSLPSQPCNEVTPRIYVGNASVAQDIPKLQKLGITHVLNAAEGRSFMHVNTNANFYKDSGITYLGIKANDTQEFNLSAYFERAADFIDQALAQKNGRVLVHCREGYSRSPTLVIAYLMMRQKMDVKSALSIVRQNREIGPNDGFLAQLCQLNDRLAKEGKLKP
Sequence of Tyrosine-protein phosphatase non-receptor type 11 (Q06124 whole entry): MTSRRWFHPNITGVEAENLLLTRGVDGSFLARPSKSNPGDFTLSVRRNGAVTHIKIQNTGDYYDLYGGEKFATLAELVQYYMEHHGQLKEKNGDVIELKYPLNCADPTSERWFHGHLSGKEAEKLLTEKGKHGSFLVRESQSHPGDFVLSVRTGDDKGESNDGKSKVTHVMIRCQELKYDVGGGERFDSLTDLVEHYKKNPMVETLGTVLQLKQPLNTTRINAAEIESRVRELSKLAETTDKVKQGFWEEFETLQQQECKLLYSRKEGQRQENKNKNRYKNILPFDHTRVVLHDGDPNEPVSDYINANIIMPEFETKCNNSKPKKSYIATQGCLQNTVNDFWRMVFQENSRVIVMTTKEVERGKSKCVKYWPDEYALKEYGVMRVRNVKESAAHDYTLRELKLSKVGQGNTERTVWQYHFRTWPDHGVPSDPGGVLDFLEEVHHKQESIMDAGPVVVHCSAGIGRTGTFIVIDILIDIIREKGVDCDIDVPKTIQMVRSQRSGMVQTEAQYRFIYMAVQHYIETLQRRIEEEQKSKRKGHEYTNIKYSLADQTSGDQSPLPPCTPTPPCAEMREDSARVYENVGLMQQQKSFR
Sequence of Tyrosine-protein phosphatase non-receptor type 5 (P54829 whole entry): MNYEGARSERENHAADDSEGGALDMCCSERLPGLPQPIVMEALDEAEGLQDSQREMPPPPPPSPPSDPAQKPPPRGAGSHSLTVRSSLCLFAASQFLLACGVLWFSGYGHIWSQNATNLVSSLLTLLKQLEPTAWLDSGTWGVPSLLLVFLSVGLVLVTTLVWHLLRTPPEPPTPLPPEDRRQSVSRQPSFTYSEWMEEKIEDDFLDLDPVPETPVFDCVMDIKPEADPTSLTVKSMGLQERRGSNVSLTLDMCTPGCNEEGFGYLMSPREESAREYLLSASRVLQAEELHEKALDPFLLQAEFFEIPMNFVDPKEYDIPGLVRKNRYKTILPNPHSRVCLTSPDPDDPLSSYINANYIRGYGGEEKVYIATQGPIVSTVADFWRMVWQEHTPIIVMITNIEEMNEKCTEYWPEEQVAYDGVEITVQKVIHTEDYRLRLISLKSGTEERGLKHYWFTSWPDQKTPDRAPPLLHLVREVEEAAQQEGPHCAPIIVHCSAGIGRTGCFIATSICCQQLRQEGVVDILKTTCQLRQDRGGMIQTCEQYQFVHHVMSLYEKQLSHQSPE

Cc1cc(NC(=O)C(C)Sc2nc(-c3cccs3)nc3ccccc23)no1 (configuration not stated)
IC50 (Major prion protein): 1.7 µM (active) | IC50 (cells): > 138 µM (inactive)

CCN(c1ccccc1)S(=O)(=O)c1cc(C(=O)OC(C)C(=O)Nc2ccc3c(c2)OCCO3)ccc1C (configuration not stated)
IC50 [1]: 4.38 µM (active) | IC50 [2]: 2.47 µM (active) | IC50 [3]: > 80 µM (inactive) | IC50 [4]: 5.05 µM (active) | IC50 [5]: > 69.5 µM (inactive) | IC50 [6]: > 7.72 µM (active)

Cc1ccc(C(=O)C2=C(O)C(=O)N(CCN3CCOCC3)C2c2cccnc2)cc1 (configuration not stated)
Ki (fMet-Leu-Phe receptor): > 66.7 µM (inactive)

Cc1ccc(-n2c(S)nnc2C2CC2c2ccc(Cl)cc2)cc1 (configuration not stated)
IC50 [6]: > 69.5 µM (inactive)

CC(C)(C)c1ccc(S(=O)(=O)/N=C2\C=C(NS(=O)(=O)c3ccccc3)C(=O)c3ccccc32)cc1
AC50 [7]: 4.68 µM (active) | IC50 [8]: 15 µM (active) | EC50 (Protein RecA): 4.85 µM (active) | IC50 (Genome polyprotein): 25.5 µM (active) | AC50 [9]: 3.73 µM (active)

Cc1ccc(-n2c(C3CC3c3ccc(Cl)cc3)n[nH]c2=S)cc1 (configuration not stated)
IC50 [5]: > 69.5 µM (inactive)

Cc1ccc(NC(=O)c2oc3ccc(S(=O)(=O)N4CCOCC4)cc3c2C)cc1C
Ki (fMet-Leu-Phe receptor): > 66.7 µM (inactive)

CC(C)(C)c1cc(C(=O)NNC(=O)Nc2ccccc2)n(Cc2ccccc2)n1
IC50 [10]: > 122 µM (inactive) | IC50 [11]: > 122 µM (inactive)

Cc1ccc(Cc2c(-c3ccco3)nc3c(C)cc(Br)cn23)cc1
IC50 (Major prion protein): 9.95 µM (active) | IC50 (cells): 78.6 µM (inactive)

Brc1c[nH]c2nc(SCc3nc4ccccc4[nH]3)nc-2c1
IC50 [12]: 7.89 µM (active) | IC50 [13]: 83.3 µM (inactive) | IC50 [14]: 4.23 µM (active) | IC50 [15]: > 83.3 µM (inactive)

COC(=O)C(C(=O)OC)[C@H]1C=C[C@@H](C(=O)NS(=O)(=O)c2ccc(C)cc2)N(C(C)=O)C1
IC50 [10]: 2.03 µM (active) | IC50 [11]: > 122 µM (inactive)

Reference: ChEMBL document CHEMBL1201862, “PubChem BioAssay data set” (2004)
